The text below walks through data of patent US11186577B2, “Vasopressin receptor antagonists and products and methods related thereto” (BlackThorn Therapeutics, Inc., priority 2017, dated 2021).

Like-named read-outs stand apart in the source and are kept apart here.

This assay addresses human Arginine Vasopressin Receptor 1a (AVPR1a) (Homo sapiens (Human), UniProt P37288). In words: Vasopressin V1A receptor antagonist assay (AVP-evoked calcium, FLIPR, CHO-AVPR1a cells). It is filed as cell-based. The protocol: The purpose of this assay was to determine the inhibitory effect of synthesized compounds on the Vasopressin V1a receptor. The assay as performed in Chinese Hamster Ovary (CHO) cells expressing the human Arginine Vasopressin Receptor 1a (AVPR1a). Arginine Vasopressin (AVP) evokes an increase in intracellular calcium in CHO-AVPR1a cells which is measured in a fluorescence assay on the FLIPR^TETRA using calcium sensitive dyes. Test compounds were assessed for their ability to affect the magnitude of the response to AVP, with antagonists showing a concentration-dependent reduction in the AVP-mediated fluorescence. Compounds were tested in duplicate in a 10-point, 1:3 dilution series starting at a nominal concentration of 3 μM in the assay.
CHO-AVPR1a cells were maintained in routine culture in T175 Flasks at 37° C., 5% CO2. The growth medium consists of Ham's F12 media supplemented with 10% v/v fetal bovine serum, 1× non-essential amino acids, and 0.4 mg/ml Geneticin G418.
On day one, cells were harvested from T175 flasks when they are 80-90% confluent by first washing the cell monolayer with PBS and then dissociated using trypsin 0.05%/EDTA (3 mL for a T175 Flask). The flasks were incubated at room temperature until the cells detached. To the cell suspension, 10 ml of growth media was added and the cell density determined using the Vi-Cell automated cell counter. The cells were spun at 1000 rpm for 3 minutes, then the supernatant was carefully removed and discarded. The cell pellet was re-suspended at 6.0e^5 cells/ml in growth media. 25 μL of cells in growth media was dispensed into each well (15,000 cells per well) of a poly-D-lysine coated black, clear bottomed, 384-well plate. The plates were incubated at 37° C., 5% CO2 overnight.
At the start of each assay day, the potency of AVP was assessed and an EC80 concentration determined for subsequent compound profiling. Assays were performed using a two-step addition protocol on the FLIPR^TETRA; first addition of 5 μl of control or test compound at 10× final in assay buffer with 15 min incubation at 37° C., 5% CO2 followed by 10 μl of AVP at 6× final concentration in assay buffer. […] The assay buffer consisted of HBSS (+Ca/+Mg) supplemented with 20 mM HEPES, and for the preparation of the AVP agonist only, 0.1% w/v bovine serum albumin. The assay was initiated by the removal of growth media from the cells and replacement with 45 μl of Calcium-6 dye (Molecular Devices) prepared at 1× in assay buffer. Cells are loaded with dye for 60-90 min at 37° C., 5% CO2 before initiation of the FLIPR^TETRA protocol. […] At the end of the incubation period, 10 μl of AVP in assay buffer containing 0.1% BSA was added at the previously determined EC80 concentration.

Broadly, the IC50 is the concentration that inhibits the measured activity by half.

Chain of human Arginine Vasopressin Receptor 1a (AVPR1a) (P37288 whole entry): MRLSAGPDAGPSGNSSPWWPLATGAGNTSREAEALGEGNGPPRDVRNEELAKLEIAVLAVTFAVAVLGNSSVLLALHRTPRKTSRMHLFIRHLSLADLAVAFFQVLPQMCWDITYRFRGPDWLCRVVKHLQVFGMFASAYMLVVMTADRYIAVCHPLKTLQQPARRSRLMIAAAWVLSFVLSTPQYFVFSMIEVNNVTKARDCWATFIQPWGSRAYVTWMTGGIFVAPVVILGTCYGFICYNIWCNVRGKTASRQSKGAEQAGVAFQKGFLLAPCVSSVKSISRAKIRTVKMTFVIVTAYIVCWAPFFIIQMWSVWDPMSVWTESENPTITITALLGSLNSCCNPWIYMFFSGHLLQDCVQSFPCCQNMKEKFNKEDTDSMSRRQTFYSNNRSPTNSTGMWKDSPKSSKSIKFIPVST

On to `O=C(C1C[C@@H]1F)N1Cc2cc(Cl)ccc2-n2c(nnc2C2CC3(C2)CN(c2ccc(F)cn2)C3)C1` (some centres unmarked) [compound 159], for which the IC50 (read-out: V1a IC50) was below 0.1 µM.

For `CN1Cc2cc(Cl)ccc2-c2c(C3CC4(C3)CN(c3ccc(F)cn3)C4)noc2C1` [compound 97, 8-chloro-1-(2-(5-fluoropyridin-2-yl)-2-azaspiro[3.3]heptan-6-yl)-5-methyl-5,6-dihydro-4H-benzo[c]isoxazolo[4,5-e]azepine], the IC50 (read-out: V1a IC50) was below 0.1 µM.

As to `Cc1nc(N2CC3(CC(c4nnc5n4-c4ccc(Cl)cc4CN(C4CC4)C5)C3)C2)no1` [compound 268, 3-(6-(8-chloro-5-cyclopropyl-5,6-dihydro-4H-benzo[f][1,2,4]triazolo[4,3-a][1,4]diazepin-1-yl)-2-azaspiro[3.3]heptan-2-yl)-5-methyl-1,2,4-oxadiazole], the IC50 lay in the range of 0.1 to 0.5 µM.

For `Cc1nccnc1N1CC2(CC(c3nnc4n3-c3ccc(Cl)cc3CN(C3(C)CC3)C4)C2)C1` [compound 244], the IC50 (read-out: V1a IC50) is below 0.1 µM.

`CC1c2nnc(C3CC4(C3)CN(c3ccc(F)cn3)C4)n2-c2ccc(Cl)cc2CN1C(=O)C(C)(C)F` (single isomer, unassigned) [Cpd 178B]: the IC50 (read-out: V1a IC50) is 0.1 to 0.5 µM.

For the compound `CC1c2nnc(C3CC4(C3)CN(c3ncc(F)cn3)C4)n2-c2ccc(Cl)cc2CN1C(=O)OC(CF)CF` (single isomer, unassigned) [Cpd 194B], the IC50 (read-out: V1a IC50) was above 1 µM.

For `COCCN1Cc2cc(Cl)ccc2-n2c(nnc2C2CC3(C2)CN(c2ncccc2F)C3)C1` [compound 53], where the note is “read-out: V1a IC50”, the IC50 was below 0.1 µM.

`CN1Cc2cc(Cl)ccc2-n2c(nnc2C2CC3(C2)CN(C(=O)C2CCO2)C3)C1` (centres unmarked) [compound 33]: under “read-out: V1a IC50”, the IC50 is above 1 µM.

Take `Cc1cc(C)nc(N2CC3(CC(c4nnc5n4-c4ccc(Cl)cc4CN(C4CC4)C5)C3)C2)c1` [compound 275]: where the note is “read-out: V1a IC50”, the IC50 is below 0.1 µM.

For `CN1Cc2cc(Cl)ccc2-n2c(nnc2C2CC3(C2)CN(c2noc(C4CC4)n2)C3)C1` [compound 267], for the setting “read-out: V1a IC50”, the IC50 was above 1 µM.

With `CC(C)OC(=O)N1Cc2cc(Cl)ccc2-n2c(C3CC4(C3)CN(c3ncccn3)C4)nnc2C1C` (single isomer, unassigned) [Cpd 167B], the IC50 (read-out: V1a IC50) is above 1 µM.

With `CN1Cc2cc(Cl)ccc2-n2c(nnc2C2CC3(C2)CN(C(=O)C2(C)CC2)C3)C1` [compound 31], the IC50 fell in the range of 0.1 to 0.5 µM.

In the case of `Clc1ccc2c(c1)CN(C1CC1)Cc1nnc(C3CC4(C3)CN(c3cnccn3)C4)n1-2` [compound 219], the IC50 (read-out: V1a IC50) was below 0.1 µM.

With `COc1ccc(C)nc1N1CC2(CC(c3nnc4n3-c3ccc(Cl)cc3CN(C3CC3)C4)C2)C1` [compound 274], under “read-out: V1a IC50”, the IC50 was below 0.1 µM.

For the compound `COC(=O)N1Cc2cc(Cl)ccc2-n2c(nnc2C2CC3(C2)CN(c2ccncn2)C3)C1` [compound 186], the IC50 was 0.1 to 0.5 µM.

Regarding `CN1Cc2cc(Cl)ccc2-n2c(nnc2C2CC3(C2)CN(c2ncccn2)C3)C1` [compound 38], the half-inhibitory concentration (IC50) (read-out: V1a IC50) is below 0.1 µM.

With `CC(C)C(=O)N1CC2(CC(c3nnc4n3-c3ccc(Cl)cc3CN(C)C4)C2)C1` [compound 30], the IC50 lay within 0.1 to 0.5 µM.

`COC(=O)N1Cc2cc(Cl)ccc2-n2c(C3CC4(C3)CN(c3ncncc3F)C4)nnc2C1C` (single isomer, unassigned) [Cpd 188A]: the IC50 (read-out: V1a IC50) was below 0.1 µM.

With `CC1c2nnc(C3CC4(C3)CN(c3ccc(F)cn3)C4)n2-c2ccc(Cl)cc2CN1C` (single isomer, unassigned) [Cpd 179B], the IC50 (read-out: V1a IC50) lay in the range of 0.1 to 0.5 µM.

Consider `Clc1ccc2c(c1)CN(C1CC1)Cc1nnc(C3CC4(C3)CN(c3ccncn3)C4)n1-2` [compound 233], for which the IC50 (read-out: V1a IC50) was below 0.1 µM.

Turning to `CN1Cc2cc(Cl)ccc2-n2c(nnc2C2CC3(C2)CN(c2ncncc2F)C3)C1` [compound 238], the IC50 (read-out: V1a IC50) was below 0.1 µM.

In the case of `COC(=O)N1Cc2cc(Cl)ccc2-n2c(C3CC4(C3)CN(c3ccncn3)C4)nnc2C1C` (centres unmarked) [compound 184, methyl 8-chloro-4-methyl-1-(2-(pyrimidin-4-yl)-2-azaspiro[3.3]heptan-6-yl)-4H-benzo[f][1,2,4]triazolo[4,3-a][1,4]diazepine-5(6H)-carboxylate], the IC50 (read-out: V1a IC50) was in the range of 0.1 to 0.5 µM.

Consider `Clc1ccc2c(c1)CN(C1CCC1)Cc1nnc(C3CC4(C3)CN(c3cnccn3)C4)n1-2` [compound 40], for which, where the note is “read-out: V1a IC50”, the IC50 was below 0.1 µM.

Consider `Cn1nc(N2CC3(CC(c4nnc5n4-c4ccc(Cl)cc4CN(C4CC4)C5)C3)C2)c2cccnc21` [compound 250], for which the IC50 (read-out: V1a IC50) is below 0.1 µM.

Take `O=C1OCC2c3nnc(C4CC5(C4)CN(c4ncccn4)C5)n3-c3ccc(Cl)cc3CN12` (centres unmarked) [compound 198]: the IC50 fell in the range of 0.1 to 0.5 µM.

As for `CC1(N2Cc3cc(Cl)ccc3-n3c(nnc3C3CC4(C3)CN(c3cccc(C#N)n3)C4)C2)CC1` [compound 262], the IC50 (read-out: V1a IC50) is below 0.1 µM.

For the compound `Cc1cnc(N2CC3(CC(c4nnc5n4-c4ccc(Cl)cc4CN(C4CC4)C5)C3)C2)nc1` [compound 234], the IC50 lay within 0.1 to 0.5 µM.

For `Cc1nc(N2CC3(CC(c4nnc5n4-c4ccc(Cl)cc4CN(C)C5)C3)C2)ncc1F` [compound 240], where the note is “read-out: V1a IC50”, the IC50 is below 0.1 µM.

As to `COCC(=O)N1CC2(CC(c3nnc4n3-c3ccc(Cl)cc3CN(C)C4)C2)C1` [compound 126], the IC50 (read-out: V1a IC50) was above 1 µM.

`CCOC(=O)N1Cc2cc(Cl)ccc2-n2c(C3CC4(C3)CN(c3ncc(F)cn3)C4)nnc2C1C` (single isomer, unassigned) [Cpd 172B]: the IC50 (read-out: V1a IC50) was above 1 µM.

Regarding `CN1Cc2cc(Cl)ccc2-n2c(nnc2C2CC3(C2)CN(c2nccc4c2ncn4C)C3)C1` [compound 257], the IC50 lay within 0.5 to 1 µM.

With `COCCN1Cc2cc(Cl)ccc2-n2c(nnc2C2CC3(C2)CN(c2cccnc2)C3)C1` [compound 55], the IC50 lay within 0.1 to 0.5 µM.

Regarding `CN1Cc2cc(Cl)ccc2-n2c(nnc2C2CC3(C2)CN(c2noc4ccccc24)C3)C1` [compound 256], the IC50 (read-out: V1a IC50) was below 0.1 µM.

Regarding `CC(C)OC(=O)N1Cc2cc(Cl)ccc2-n2c(C3CC4(C3)CN(c3ccncn3)C4)nnc2C1C` (single isomer, unassigned) [Cpd 187A], the IC50 (read-out: V1a IC50) is below 0.1 µM.

For the compound `Cc1cc(N2CC3(CC(c4nnc5n4-c4ccc(Cl)cc4CN(C)C5)C3)C2)ncc1F` [compound 252], the IC50 (read-out: V1a IC50) is below 0.1 µM.

Consider `Cc1nc(N2CC3(CC(c4nnc5n4-c4ccc(Cl)cc4CN(C4(C)CC4)C5)C3)C2)ccc1F` [compound 260], for which, for the setting “read-out: V1a IC50”, the IC50 was below 0.1 µM.

For the compound `CC1c2nnc(C3CC4(C3)CN(c3ccccn3)C4)n2-c2ccc(Cl)cc2CN1C(=O)C1(F)CC1` (centres unmarked) [compound 181], the IC50 (read-out: V1a IC50) was below 0.1 µM.

Take `Clc1ccc2c(c1)CN(C1CC1)Cc1nnc(C3CC4(C3)CN(c3noc(C5CC5)n3)C4)n1-2` [compound 269]: the IC50 is 0.5 to 1 µM.

As for `CC(C)OC(=O)N1Cc2cc(Cl)ccc2-n2c(C3CC4(C3)CN(c3ccc(F)cn3)C4)nnc2C1C` (single isomer, unassigned) [Cpd 163B], under “read-out: V1a IC50”, the IC50 was in the range of 0.5 to 1 µM.

With `CC1(N2Cc3cc(Cl)ccc3-n3c(nnc3C3CC4(C3)CN(c3ncccn3)C4)C2)CC1` [compound 264], the IC50 (read-out: V1a IC50) was below 0.1 µM.

As to `COC(=O)N1Cc2cc(Cl)ccc2-n2c(C3CC4(C3)CN(c3cnccn3)C4)nnc2C1C` (single isomer, unassigned) [Cpd 165B], the IC50 (read-out: V1a IC50) lay in the range of 0.5 to 1 µM.

On to `COCCN1Cc2cc(Cl)ccc2-n2c(nnc2C2CC3(C2)CN(c2ccc(F)cn2)C3)C1` [compound 44], for which the IC50 (read-out: V1a IC50) was below 0.1 µM.

With `CN1Cc2cc(Cl)ccc2-n2c(nnc2C2CC3(C2)CN(C(=O)N2CCOCC2)C3)C1` [compound 25], the IC50 (read-out: V1a IC50) is above 1 µM.

As for `CN1Cc2cc(Cl)ccc2-n2c(nnc2C2CC3(C2)CN(C(=O)C2CC2(F)F)C3)C1` (centres unmarked) [compound 124], the IC50 lay within 0.1 to 0.5 µM.

For `Cc1ccc(F)c(N2CC3(CC(c4nnc5n4-c4ccc(Cl)cc4CN(C4CC4)C5)C3)C2)n1` [compound 273], the IC50 (read-out: V1a IC50) was below 0.1 µM.

On to `CC1c2nnc(C3CC4(C3)CN(c3ncc(F)cn3)C4)n2-c2ccc(Cl)cc2CN1C(=O)OC1CC1` (single isomer, unassigned) [Cpd 192B], for which, for the setting “read-out: V1a IC50”, the IC50 was above 1 µM.

Regarding `Cc1ccc(N2CC3(CC(c4nnc5n4-c4ccc(Cl)cc4CN(C4CC4)C5)C3)C2)nc1` [compound 227], the IC50 (read-out: V1a IC50) is below 0.1 µM.

As to `CC(C)(C)OC(=O)N1Cc2cc(Cl)ccc2-n2c(nnc2C2CC3(C2)CN(c2ccccn2)C3)C1` [compound 62], the IC50 (read-out: V1a IC50) is below 0.1 µM.

`CC1c2nnc(C3CC4(C3)CN(c3ccc(F)cn3)C4)n2-c2ccc(Cl)cc2CN1C(=O)C(C)(C)F` (centres unmarked) [compound 178]: the IC50 (read-out: V1a IC50) is below 0.1 µM.

On to `O=C(C(F)F)N1Cc2cc(Cl)ccc2-n2c(nnc2C2CC3(C2)CN(c2cnccn2)C3)C1` [compound 82], for which, under “read-out: V1a IC50”, the 50% inhibitory concentration (IC50) is below 0.1 µM.
